The nature of series [1]: trans:cis ratio of the proline peptide bond in N-acetyl proline methylester derivatives. Format: physicochemical. As to conditions: for ΔΔG: relative to AcProOMe. On the procedure:
To begin to test this hypothesis, it was determined how electron-withdrawing groups affect the trans:cis ratio. N-Acetyl proline methylester (AcProOMe), N-acetyl-4(R)-hydroxyproline methylester (AcHypOMe), and N-acetyl-4(R)-fluoroproline (AcFlpOMe) were synthesized and their preferences for the trans state were determined, Eberhardt et al., J. Am. Chem. Soc., 118:12261-12266 (1996).

Series [2] in a line: crystalline structure, Cγ-Cδ bond length. It is filed as physicochemical. The source says:
The origin of this effect on trans:cis ratio was explored by determining the crystalline structures of AcProOMe, AcHypOMe, and AcFlpOMe, Panasik et al., Int. J. Pept. Protein Res., 44:262-269. […] This order is consistent with an inductive effect in which the substituent in the 4-position withdraws electron density away from the Cγ-Cδ bond. A shorter Cγ-Cδ bond length diminishes steric clashes between atoms in the trans isomer, but has no effect on the cis isomer. The inductive effect from the hydroxyl group of Hyp residues is consistent with the effect of Hyp on collagen stability. Other manifestations of the inductive effects of Hyp and Flp residues were also found by Panasik et al. and by Eberhardt et al. Similar inductive effects should be manifested in 4(S)-fluoroproline and in 4,4-difluoroproline.

For the compound `COC(=O)[C@@H]1C[C@@H](O)CN1C(C)=O` [AcHypOMe, N-acetyl-4(R)-hydroxyproline methylester], in series [1], the “trans:cis ratio” value stood at 5.8 and the ΔΔG was 0.18 kcal/mol. The same compound registered a Cy-Cδ bond length in series [2] of 1.510 Å.
Consider `COC(=O)[C@@H]1CCCN1C(C)=O` [AcProOMe, N-Acetyl proline methylester], for which, in series [1], the “trans:cis ratio” value worked out at 4.3 and the ΔΔG was found to be 0 kcal/mol. For the same compound, in series [2], the Cy-Cδ bond length worked out at 1.523 Å.
